{
  "source": "patent CN104710358A",
  "about": "“喹啉-4-甲酰胺衍生物及其医药用途” (Chengdu Military General Hospital of PLA, priority 2015, dated 2015)",
  "tested_on": "PTSD rat conditioned fear response [束缚应激致PTSD大鼠条件恐惧反应]",
  "assay": "Conditioned fear response in restraint-stress-induced PTSD rats (freezing after foot shock)",
  "assay_type": "in vivo",
  "conditions": "dose not given, Fig. 1",
  "data": [
    {"smiles": "Cc1ccc(Cl)cc1N1CCN(CCCNC(=O)c2ccnc3ccccc23)CC1", "note": "[化合物1, N-{3-[4-(5-氯-2-甲基苯基)哌嗪基]丙基}-喹啉-4-甲酰胺, 盐酸乙醚成盐]", "values": [
      {"measurement": "percentage of freezing time", "setting": "PTSD group, before versus after drug administration, 5 min test in shock box (CS+) without current", "value": "显著降低"},
      {"measurement": "inhibition of PTSD conditioned fear response", "setting": "PTSD rats", "value": "显著抑制PTSD条件性恐惧反应"},
      {"measurement": "anxiety level of PTSD rats", "setting": "PTSD rats, inferred from the conditioned fear test", "value": "降低PTSD大鼠的焦虑水平"}
    ]}
  ]
}
